In PMC7044277 (Nature Communications, 2020):
Several values for one entry are separate records, joined by “and”; a condition that tells them apart may be missing. Equal values may be shown once.

Assays:
DRD4 (D4.4 variant) [1] = target: T1, DRD4 (D4.4 variant) (Homo sapiens, UniProt P21917); experiment: Gαi/o-mediated cAMP inhibition (GloSensor); format: cell-based; conditions: DRD4; agonist, cAMP inhibition; read-out: EC50 ± SEM
T1 sequence (P21917 1-419): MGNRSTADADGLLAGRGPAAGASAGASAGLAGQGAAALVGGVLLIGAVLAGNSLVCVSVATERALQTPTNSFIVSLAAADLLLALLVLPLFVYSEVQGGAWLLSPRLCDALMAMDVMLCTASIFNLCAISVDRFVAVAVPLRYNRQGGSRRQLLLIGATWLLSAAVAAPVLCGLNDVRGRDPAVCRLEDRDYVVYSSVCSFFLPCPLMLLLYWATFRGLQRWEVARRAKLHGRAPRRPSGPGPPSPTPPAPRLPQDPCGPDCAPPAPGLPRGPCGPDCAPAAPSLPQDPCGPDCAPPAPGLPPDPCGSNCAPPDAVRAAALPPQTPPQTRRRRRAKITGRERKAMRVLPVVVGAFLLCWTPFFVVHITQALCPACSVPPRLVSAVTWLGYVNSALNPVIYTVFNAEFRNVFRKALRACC

DRD4 (D4.4 variant) [2] = target: T1, DRD4 (D4.4 variant); experiment: β-arrestin2 recruitment (Tango); format: cell-based; conditions: DRD4; Tango; read-out: EC50 ± SEM
DRD2 (D2 long receptor) [3] = target: T2, DRD2 (D2 long receptor) (Homo sapiens, UniProt P14416); experiment: β-arrestin2 recruitment (Tango), HTLA cells; format: cell-based; conditions: for Emax relative to quinpirole response / EC50: DRD2; for Emax relative to quinpirole response: Tango; for EC50: β-arrestin2 recruitment (Tango), read-out: EC50 ± SEM; for Response, Fig_S11c dose-response: individual replicates
DRD3 wild-type = DRD3 wild-type (Homo sapiens, UniProt P35462); experiment: Radioligand competition binding, [3H]-N-methylspiperone; conditions: for Ki: DRD3, [3H]-methylspiperone (0.8-1.0 nM), read-out: Ki; for pKi ± SEM: DRD3 wild-type
DRD2 (D2 long receptor) [4] = target: T2, DRD2 (D2 long receptor); experiment: Gαi/o-mediated cAMP inhibition (GloSensor split-luciferase cAMP reporter), HEK293T; format: cell-based; conditions: for EC50: agonist, Gαi/o-mediated cAMP inhibition, read-out: EC50 ± SEM; for Response, Fig_S11b dose-response: individual replicates;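 on all read-outs here: compounds applied 15 min at room temperature, then luciferin plus 400 nM isoproterenol to raise cAMP through endogenous β2-adrenergic receptors, luminescence read 15 min later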
[5] = target: T3, DRD4 (D4.4 variant) wild-type (Homo sapiens, UniProt P21917); experiment: Radioligand competition binding, [3H]-N-methylspiperone; conditions: for Ki: DRD4, [3H]-methylspiperone (0.8-1.0 nM), read-out: Ki
T3 sequence (P21917 1-419): T1 sequence (P21917 1-419)

DRD3 = DRD3 (Homo sapiens, UniProt P35462); experiment: β-arrestin2 recruitment (Tango); format: cell-based; conditions: DRD3, Tango; for EC50: read-out: EC50 ± SEM
[6] = target: DRD2 (D2 long receptor) wild-type (Homo sapiens, UniProt P14416); experiment: Radioligand competition binding, [3H]-N-methylspiperone, HEK293T membranes; conditions: for Ki: DRD2, [3H]-methylspiperone (0.8-1.0 nM), read-out: Ki
DRD2 F1103.28A = DRD2 F1103.28A (Homo sapiens, UniProt P14416, F110A); format: binding; design: expressed in transfected cells; host or cells: HEK293T (ATCC CRL-11268); conditions: DRD2 F1103.28A; for Ki: read-out: Ki
DRD2 F1103.28A, sequence (P14416 whole entry F110A): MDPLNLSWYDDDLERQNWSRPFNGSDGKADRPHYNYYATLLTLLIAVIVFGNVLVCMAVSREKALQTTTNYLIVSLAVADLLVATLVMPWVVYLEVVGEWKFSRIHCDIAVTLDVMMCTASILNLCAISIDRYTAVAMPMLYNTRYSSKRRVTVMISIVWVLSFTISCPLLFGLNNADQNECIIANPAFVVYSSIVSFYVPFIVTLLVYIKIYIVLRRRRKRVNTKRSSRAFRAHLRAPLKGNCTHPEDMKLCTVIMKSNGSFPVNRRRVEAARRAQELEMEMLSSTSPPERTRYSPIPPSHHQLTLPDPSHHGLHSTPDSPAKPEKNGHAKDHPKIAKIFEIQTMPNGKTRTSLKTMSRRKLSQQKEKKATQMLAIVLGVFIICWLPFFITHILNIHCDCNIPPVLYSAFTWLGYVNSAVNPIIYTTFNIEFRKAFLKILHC

T2 sequence (P14416 whole entry): as the sequence (P14416 whole entry F110A) above, with A110F counted along it
DRD2 (D2 long receptor) wild-type, sequence (P14416 whole entry): as the sequence (P14416 whole entry F110A) above, with A110F counted along it
DRD3 wild-type, sequence (P35462 whole entry): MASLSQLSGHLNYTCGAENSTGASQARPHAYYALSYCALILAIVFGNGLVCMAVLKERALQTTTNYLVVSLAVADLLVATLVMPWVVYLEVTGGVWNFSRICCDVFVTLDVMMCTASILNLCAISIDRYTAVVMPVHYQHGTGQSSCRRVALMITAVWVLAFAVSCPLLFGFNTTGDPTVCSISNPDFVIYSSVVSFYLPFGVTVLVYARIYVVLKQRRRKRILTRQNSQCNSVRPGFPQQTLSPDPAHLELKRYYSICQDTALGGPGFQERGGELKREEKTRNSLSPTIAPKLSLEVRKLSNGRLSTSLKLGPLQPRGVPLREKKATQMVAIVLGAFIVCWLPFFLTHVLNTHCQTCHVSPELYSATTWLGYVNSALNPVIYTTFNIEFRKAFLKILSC
DRD3, sequence (P35462 whole entry): as above

In the case of `CCOc1cccc2cc(C(C)NCc3ccccc3)oc12.Cl` (centres unmarked) [O4LE9], the EC50 (DRD4 (D4.4 variant) [1]) is reported as > 10 µM, the EC50 (DRD4 (D4.4 variant) [2]) is reported as > 10 µM and the “Emax relative to quinpirole response” value (DRD2 (D2 long receptor) [3]) is reported as 19.73%. For the same compound, the EC50 (DRD2 (D2 long receptor) [3]) was 5.37 ± 0.964 µM, the Ki (DRD3 wild-type) was 5.88 µM and the “pKi ± SEM” value (DRD3 wild-type) was 5.23±0.25. The EC50 (DRD2 (D2 long receptor) [4]; DRD2) was > 10 µM, the Ki [5] was > 10 µM and the EC50 (DRD3) was > 10 µM. For the same compound, the Ki [6] was > 10 µM, the “pKi ± SEM” value (DRD2 F1103.28A) was 5.28±0.02 and the Ki (DRD2 F1103.28A) was 5.25 µM.
For `CCCOc1cccc2cc(C(C)NCC3(O)CCCCC3)oc12.Cl` (centres unmarked) [O5LE6], the EC50 (DRD4 (D4.4 variant) [1]) was > 10 µM, the EC50 (DRD4 (D4.4 variant) [2]) was > 10 µM and the “Emax relative to quinpirole response” value (DRD2 (D2 long receptor) [3]) was 96.83%. For the same compound, the EC50 (DRD2 (D2 long receptor) [3]) was 0.048 ± 0.0174 µM, the “response, Fig_S11c dose-response source data” value (DRD2 (D2 long receptor) [3]; Fig_S11c, Log[Drug] -5, replicate values) was 92.0049 and 94.8711 and 101.869 and 86.3956 and 96.7296 and 94.1831 and 124.768 and 128.356 and the “Response, Fig_S11c dose-response” value (DRD2 (D2 long receptor) [3]; Log[Drug] -6.52) was 78.0067 and 72.6033 and 81.7269. The “Response, Fig_S11c dose-response” value (DRD2 (D2 long receptor) [3]; Log[Drug] -7) was 59.3634 and 78.1496 and 92.3943 and 62.4498 and 64.4647 and 75.7752 and 66.3683 and 83.054 and 11.3874, the “Response, Fig_S11c dose-response” value (DRD2 (D2 long receptor) [3]; Log[Drug] -7.52) was 39.0633 and 46.4823 and 48.2261 and 47.7888 and 46.5069 and 50.1562 and 52.6803 and 36.834 and 2.983 and the “Response, Fig_S11c dose-response” value (DRD2 (D2 long receptor) [3]; Log[Drug] -8) was 13.2042 and 18.1697 and 22.7864 and 24.8922 and 32.8443 and 29.0019 and 29.5472 and 40.4681 and 3.216. For the same compound, the “Response, Fig_S11c dose-response” value (DRD2 (D2 long receptor) [3]; Log[Drug] -8.52) was 6.043 and 5.645 and 6.29 and 8.275 and 9.219 and 10.0453 and 7.5026 and 13.6733, the “Response, Fig_S11c dose-response” value (DRD2 (D2 long receptor) [3]; Log[Drug] -9) was 3.483 and 3.9317 and 4.775 and 3.72 and 3.708 and 4.581 and 2.217 and 12.7509 and 0.7411 and the “Response, Fig_S11c dose-response” value (DRD2 (D2 long receptor) [3]; Log[Drug] -9.52) was 2.993 and 3.331 and 4.098 and 2.754 and 3.737 and 4.1942 and 7.991 and 10.1775 and 1.675. The “Response, Fig_S11c dose-response” value (DRD2 (D2 long receptor) [3]; Log[Drug] -10) was 3.128 and 3.469 and 3.576 and 3.051 and 3 and 3.543 and 4.136 and 3.1859 and 0.7745, the “Response, Fig_S11c dose-response” value (DRD2 (D2 long receptor) [3]; Log[Drug] -10.52) was 3.13 and 3.099 and 3.417 and 2.557 and 2.786 and 3.353 and 2.31 and 1.747 and 0.1927 and the “Response, Fig_S11c dose-response” value (DRD2 (D2 long receptor) [3]; Log[Drug] -11) was 2.735 and 2.569 and 3.311 and 2.422 and 2.816 and 3.208 and 1.747 and 3.739 and 0.4891. The “Response, Fig_S11c dose-response” value (DRD2 (D2 long receptor) [3]; Log[Drug] -11.52) was 2.576 and 2.946 and 3.152 and 2.7257 and 2.6254 and 2.896 and 3.227 and 4.708 and 2.264, the “Response, Fig_S11c dose-response” value (DRD2 (D2 long receptor) [3]; Log[Drug] -12) was 2.314 (2×) and 2.658 and 2.679 and 2.551 and 2.481 and 2.532 and 1.9407 and the Ki (DRD3 wild-type) was 0.39 µM. For the same compound, the “pKi ± SEM” value (DRD3 wild-type) was 6.41±0.20, the EC50 (DRD2 (D2 long receptor) [4]; DRD2) was 0.00051 ± 0.00022 µM and the “Emax relative to quinpirole response” value (DRD2 (D2 long receptor) [4]; DRD2, cAMP inhibition) was 92.80%. For the same compound, the “Response, Fig_S11b dose-response” value (DRD2 (D2 long receptor) [4]; Log[Drug] -5) was 93.7387 and 96.4518 and 83.3289 and 97.2506 and 100.948 and 91.5558 and 103.412 and 92.2091 and 101.183, the “Response, Fig_S11b dose-response” value (DRD2 (D2 long receptor) [4]; Log[Drug] -5.52) was 82.1384 and 82.3875 and 75.0785 and 87.4334 and 93.0858 and 74.7688 and 89.9797 and 94.4943 and 85.5765 and the “Response, Fig_S11b dose-response” value (DRD2 (D2 long receptor) [4]; Log[Drug] -6) was 92.7696 and 95.5936 and 84.8792 and 92.7883 and 90.7908 and 90.8333 and 98.9533 and 107.927 and 83.4028. The “Response, Fig_S11b dose-response” value (DRD2 (D2 long receptor) [4]; Log[Drug] -6.52) was 97.1163 and 91.7176 and 84.6854 and 100.523 and 99.588 and 84.586 and 94.4943 (2×) and 87.9175, the “Response, Fig_S11b dose-response” value (DRD2 (D2 long receptor) [4]; Log[Drug] -7) was 88.7275 and 92.9358 and 71.1749 and 92.7033 and 88.1559 and 76.2138 and 94.4943 and 90.0354 and 94.6058 and the “Response, Fig_S11b dose-response” value (DRD2 (D2 long receptor) [4]; Log[Drug] -7.52) was 77.9025 and 80.4772 and 73.7773 and 81.6111 and 84.246 and 79.2737 and 92.3206 (2×) and 90.0912. The “Response, Fig_S11b dose-response” value (DRD2 (D2 long receptor) [4]; Log[Drug] -8) was 77.3211 and 65.3055 and 54.0098 and 88.3259 and 67.3316 and 76.7238 and 92.3764 and 94.6058 and 90.1469, the “Response, Fig_S11b dose-response” value (DRD2 (D2 long receptor) [4]; Log[Drug] -8.52) was 58.6056 and 55.6709 and 54.785 and 76.7663 and 68.819 and 71.6664 and 72.5342 and 65.79 and 68.0195 and the “Response, Fig_S11b dose-response” value (DRD2 (D2 long receptor) [4]; Log[Drug] -9) was 60.5713 and 46.8115 and 46.2578 and 72.3889 and 53.7745 and 57.9819 and 43.7184 and 46.0036 and 36.9186. The “Response, Fig_S11b dose-response” value (DRD2 (D2 long receptor) [4]; Log[Drug] -11) was 6.418 and 5.781 and 25.106 and 20.5831 and 9.873 and -2.9186 and 1.972 and -15.9196 and 1.6931, the “Response, Fig_S11b dose-response” value (DRD2 (D2 long receptor) [4]; Log[Drug] -11.52) was -0.171 and -1.0016 and 12.1684 and 15.5258 and 10.8339 and -7.0018 and -2.6544 and the “Response, Fig_S11b dose-response” value (DRD2 (D2 long receptor) [4]; Log[Drug] -12) was 10.388 and -0.6478 and -16.2541. For the same compound, the Ki [5] was 6.6 µM, the “pKi ± SEM” value ([5]; DRD4 wild-type) was 5.18±0.16 and the “Emax relative to quinpirole response” value (DRD3) was 53.92%. The EC50 (DRD3) was 2.07 ± 0.524 µM, the Ki [6] was 2.51 µM and the “pKi ± SEM” value ([6]; DRD2 wild-type) was 5.60±0.27. The “pKi ± SEM” value (DRD2 F1103.28A) was 6.17±0.24 and the Ki (DRD2 F1103.28A) was 0.68 µM.
